Assay in all cases: inhibition of tumour cell growth, NCI panel, 48 h
Test [1] deals with SR.
Test [2] has as its system HOP-92.
Test [3] concerns NCI-H522.
Test [4] relates to HL-60.
For test [5], the system named is SK-MEL-28.
In test [6] the test system is NCI-H23.
For test [7], the system named is IGROV-1.
The subject of test [8] is PC-3.
Test [9] concerns HCT-15.
Test [10] deals with UO-31.
Test [11] has as its system NCI/ADR-RES.
For test [12], the system named is OVCAR-8.
Test [13] has as its system NCI-H460.
The test system of test [14] is K562.
Test [15] has as its system RPMI-8226.
Test [16] concerns A498.
In test [17] the test system is HCC 2998.
For test [18], the system named is SK-MEL-5.

Structures are written as SMILES.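 Assay format: 96-well plates, 48-hour exposure. Abbreviation: GI50, concentration required for 50% inhibition of growth.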 Calls of active or inactive are those of the source. Cut-off read from the data, not from the text of the source: active = GI50 up to about 1.1 µM and inactive = higher.

As to `COc1ccc(/N=N/c2c(O)ccc3ccccc23)cc1`, the GI50 was 14.8 µM (inactive) in test [1]; 19.6 µM (inactive) in [2]; 23 µM (inactive) in test [3]; > 100 µM (inactive) in test [4]; > 100 µM (inactive) in test [5]; 32.9 µM (inactive) in [6]. In addition, the GI50 in test [7] was 5.47 µM (inactive); in test [8] it was 28.2 µM (inactive); in test [9] it was 57.8 µM; in test [10], 31.3 µM (inactive); in [11] it was 22.4 µM (inactive); in test [12] it was 13.2 µM (inactive).

Turning to `Cc1ccc(-c2c(C#N)c(-c3ccccc3)c(C#N)c(=O)n2NS(=O)(=O)c2ccc(C)cc2)cc1`, the GI50 in test [2] is 20.8 µM (inactive); in test [3], 56.9 µM (inactive); in test [5], 52.2 µM (inactive); in test [13], 15.7 µM (inactive); in test [14], 40.3 µM (inactive); in [7], 48.1 µM (inactive). Further, the GI50 in test [8] was 35 µM (inactive); in test [9], 22.2 µM; in test [15], 2.75 µM (inactive); in test [11], > 100 µM (inactive); in test [12], 52.7 µM (inactive); in test [16], 27.4 µM (inactive). In addition, the GI50 in test [17] was 19.9 µM (inactive); in [18] it was 12.6 µM (inactive).

For `c1ccc(SC2(Sc3ccccc3)CCCC2)cc1`, the GI50 in test [1] is > 100 µM (inactive); in test [2], 71.1 µM (inactive); in [3], > 100 µM (inactive); in test [4] it was > 100 µM (inactive); in test [5], > 100 µM (inactive); in [13] it was > 100 µM (inactive). The GI50 is > 100 µM (inactive) in test [14]; > 100 µM (inactive) in test [6]; over 100 µM in [9]; > 100 µM (inactive) in test [10]; > 100 µM (inactive) in test [15]; > 100 µM (inactive) in [12]. The GI50 in test [16] and in [18] was > 100 µM (inactive) each time.

For `CCC(C)C(NC(=O)c1cccc2c(=O)c3ccccc3[nH]c12)C(=O)O` (centres undefined), the GI50 in [1] was > 100 µM (inactive); in [2] it was 94.4 µM (inactive); in [3] it was > 100 µM (inactive); in test [5] it was > 100 µM (inactive); in test [14], 91.8 µM (inactive); in test [6], > 100 µM (inactive). Also, the GI50 was 96.8 µM (inactive) in test [7]; > 100 µM (inactive) in test [8]; over 100 µM in [9]; 48.6 µM (inactive) in test [10]; 57.1 µM (inactive) in test [15]; > 100 µM (inactive) in test [11]. Also, the GI50 in [12], in [16] and in test [18] was > 100 µM (inactive) each time.

As to `CCOc1ccc(NC(=O)/C(CC(=O)c2c[n+]([O-])c3ccccc3[n+]2[O-])=N\OCCCc2ccccc2)cc1`, the GI50 in test [1] was > 100 µM (inactive); in [2] it was 16.9 µM (inactive); in test [3], > 100 µM (inactive); in test [4], > 100 µM (inactive); in test [5], > 100 µM (inactive); in test [13], > 100 µM (inactive). Besides, the GI50 was 62.5 µM (inactive) in test [14]; > 100 µM (inactive) in [6]; > 100 µM (inactive) in [7]; over 100 µM in test [9]; > 100 µM (inactive) in test [10]; > 100 µM (inactive) in [15]. For the same compound, the GI50 in test [12], in [16] and in [17] was > 100 µM (inactive) each time.

Consider `C#CCC(O)c1ccccc1C(O)CC#C` (centres undefined), for which the GI50 in [2] was 30.8 µM (inactive); in [3], 70.1 µM (inactive); in [4] it was > 100 µM (inactive); in test [5], > 100 µM (inactive); in test [13], > 100 µM (inactive); in test [14], > 100 µM (inactive). The GI50 in [6] was > 100 µM (inactive); in test [7] it was > 100 µM (inactive); in test [9], over 100 µM; in [10], > 100 µM (inactive); in [15], > 100 µM (inactive); in [12], > 100 µM (inactive). In addition, the GI50 in [17] is 89.3 µM (inactive); in test [18], > 100 µM (inactive).
